The values that follow come from patent US9315489B2, “Compounds and compositions for inhibiting the activity of ABL1, ABL2 and BCR-ABL1” (Novartis AG, priority 2012, dated 2016).

Where only a bound is given, the exact number is not on record here.

For this assay, the target named is ABL1 (64-515) (Homo sapiens (Human), UniProt P00519). Kind of assay: Radio ABL1 (64-515) assay (radiometric filter-binding). The assay is classed as biochemical.
Sequence of ABL1 (64-515) (P00519 64-515): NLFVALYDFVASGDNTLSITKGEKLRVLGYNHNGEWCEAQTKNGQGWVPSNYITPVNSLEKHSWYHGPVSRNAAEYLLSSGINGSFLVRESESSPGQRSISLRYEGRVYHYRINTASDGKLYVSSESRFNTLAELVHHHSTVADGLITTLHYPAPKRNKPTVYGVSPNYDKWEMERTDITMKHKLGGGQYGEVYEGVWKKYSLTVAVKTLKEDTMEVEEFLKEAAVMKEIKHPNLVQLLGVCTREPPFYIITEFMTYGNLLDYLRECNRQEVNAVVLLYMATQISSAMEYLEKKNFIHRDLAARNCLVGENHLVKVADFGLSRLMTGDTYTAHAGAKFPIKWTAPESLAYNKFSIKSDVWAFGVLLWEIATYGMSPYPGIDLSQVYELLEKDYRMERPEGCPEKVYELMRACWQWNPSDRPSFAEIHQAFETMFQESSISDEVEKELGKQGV

Procedure: For determination of ABL kinase activity, the radiometric filter-binding assay was used. […] Pre-incubation of enzyme with compounds (when stated) was performed by exposing the enzyme to compounds prior to addition of the substrate mixture (ATP and/or peptide substrate). […] Millipore, Volketswil, Switzerland) prepared according to the manufacturer's instructions. Filter-plates were washed 3× with 0.5% H3PO4, followed by addition of 30 μL scintillation cocktail (Microscint, Perkin Elmer) per well and then analysed in a TopCount NXT scintillation counter (Perkin Elmer). Results were expressed as IC50 values.

Usually IC50 stands for the concentration that inhibits the measured activity by half. The low end stands for greater potency, the high end for weaker potency. For `O=C(Nc1ccc(OC(F)(F)F)cc1)c1cccc(-c2cnc(OCCO)nc2)c1` [Example 2, 3-(2-(2-Hydroxyethoxy)pyrimidin-5-yl)-N-(4-(trifluoromethoxy)phenyl)benzamide], the half-maximal inhibitory concentration (IC50) was 6.5 nM. In other words, the single-digit nanomolar range.

Compound `N#Cc1cncc(-c2cccc(C(=O)Nc3ccc(OC(F)(F)F)cc3)c2)c1` [Example 3, 3-(5-Cyanopyridin-3-yl)-N-(4-(trifluoromethoxy)phenyl)benzamide] yielded an IC50 of 3.9 nM.

`Nc1cnc(-c2cccc(C(=O)Nc3ccc(OC(F)(F)F)cc3)c2)cn1` [Example 4, 3-(5-Aminopyrazin-2-yl)-N-(4-(trifluoromethoxy)phenyl)benzamide]: the concentration for half-maximal inhibition (IC50) came to 7 nM.

`O=C(Nc1ccc(OC(F)(F)F)cc1)c1cccc(-c2cnccn2)c1` [Example 5, 3-(Pyrazin-2-yl)-N-(4-(trifluoromethoxy)phenyl)benzamide]: the IC50 was 3.1 nM.

As for `O=C(Nc1ccc(OC(F)(F)F)cc1)c1cccc(-c2ccc(CN3CCCC3)s2)c1` [Example 7, 3-(5-(Pyrrolidin-1-ylmethyl)thiophen-2-yl)-N-(4-(trifluoromethoxy)phenyl)benzamide], the half-inhibitory concentration (IC50) was less than 3 nM.

Consider `O=C(Nc1ccc(OC(F)(F)F)cc1)c1cccc(-n2ccnc2)c1` [Example 8, 3-(1H-Imidazol-1-yl)-N-(4-(trifluoromethoxy)phenyl)benzamide], for which the IC50 amounted to 1.9 nM.

`O=C(Nc1ccc(OC(F)(F)F)cc1)c1ccc(F)c(-c2cncnc2)c1` [Example 18, 4-fluoro-3-(pyrimidin-5-yl)-N-(4-(trifluoromethoxy)phenyl)benzamide] displayed a half-maximal inhibitory concentration (IC50) of 3.2 nM.

`COc1ncc(-c2cc(C(=O)Nc3ccc(OC(F)(F)F)cc3)ccc2F)cn1` [Example 19, 4-fluoro-3-(2-methoxypyrimidin-5-yl)-N-(4-(trifluoromethoxy)phenyl)benzamide] showed an IC50 of 12 nM.

`O=C(Nc1ccc(OC(F)(F)F)cc1)c1ccc(F)c(-c2cccnc2)c1` [Example 20, 4-fluoro-3-(pyridin-3-yl)-N-(4-(trifluoromethoxy)phenyl)benzamide] showed an IC50 of 13 nM.

For `Cn1cc(-c2cc(C(=O)Nc3ccc(OC(F)(F)F)cc3)ccc2F)cn1` [Example 22, 4-fluoro-3-(1-methyl-1H-pyrazol-4-yl)-N-(4-(trifluoromethoxy)phenyl)benzamide], the concentration for half-maximal inhibition (IC50) amounted to 35 nM.

In the case of `O=C(Nc1ccc(OC(F)(F)F)cc1)c1ccc(Cl)c(-c2cncnc2)c1` [Example 24, 4-chloro-3-(pyrimidin-5-yl)-N-(4-(trifluoromethoxy)phenyl)benzamide], the half-maximal inhibitory concentration (IC50) was less than 3 nM.

Take `COc1ncc(-c2cc(C(=O)Nc3ccc(OC(F)(F)F)cc3)ccc2Cl)cn1` [Example 25, 4-chloro-3-(2-methoxypyrimidin-5-yl)-N-(4-(trifluoromethoxy)phenyl)benzamide]: the IC50 came to 8.1 nM.

Compound `O=C(Nc1ccc(OC(F)(F)F)cc1)c1ccc(Cl)c(-c2cccnc2)c1` [Example 26, 4-chloro-3-(pyridin-3-yl)-N-(4-(trifluoromethoxy)phenyl)benzamide] yielded a concentration for half-maximal inhibition (IC50) of 13 nM. Compared with the last compound, the IC50 is about 1.6-fold higher.

`O=C(Nc1ccc(OC(F)(F)F)cc1)c1ccc(Cl)c(-c2ccncc2)c1` [Example 27, 4-chloro-3-(pyridin-4-yl)-N-(4-(trifluoromethoxy)phenyl)benzamide]: the IC50 was determined as 31 nM. Against the preceding compound, the IC50 is about 2.4-fold higher.

As to `COc1ccc(C(=O)Nc2ccc(OC(F)(F)F)cc2)cc1-c1cccnc1` [Example 31, 4-methoxy-3-(pyridin-3-yl)-N-(4-(trifluoromethoxy)phenyl)benzamide], the IC50 was determined as 3.2 nM.

`COc1ccc(C(=O)Nc2ccc(OC(F)(F)F)cc2)cc1-c1ccc(F)nc1` [Example 32, 3-(6-fluoropyridin-3-yl)-4-methoxy-N-(4-(trifluoromethoxy)phenyl)benzamide] gave a half-maximal inhibitory concentration (IC50) of 3.4 nM.

`COc1ccc(C(=O)Nc2ccc(OC(F)(F)F)cc2)cc1-c1ccncc1` [Example 33, 4-methoxy-3-(pyridin-4-yl)-N-(4-(trifluoromethoxy)phenyl)benzamide]: the concentration for half-maximal inhibition (IC50) came to 8.7 nM.

In turn, `COc1ccc(C(=O)Nc2ccc(OC(F)(F)F)cc2)cc1-c1ccc2c(c1)OCO2` [Example 35, 3-(Benzo[d][1,3]dioxol-5-yl)-4-methoxy-N-(4-(trifluoromethoxy)phenyl)benzamide] came in with an IC50 of 9.9 nM.

`COc1ccc(C(=O)Nc2ccc(OC(F)(F)F)cc2)cc1-c1ccc(C(C)=O)s1` [Example 36, 3-(5-Acetylthiophen-2-yl)-4-methoxy-N-(4-(trifluoromethoxy)phenyl)benzamide] yielded an IC50 of 3.4 nM.

`O=C(Nc1ccc(OC(F)(F)F)cc1)c1ccc(OCCO)c(-c2cncnc2)c1` [Example 38, 4-(2-Hydroxyethoxy)-3-(pyrimidin-5-yl)-N-(4-(trifluoromethoxy)phenyl)benzamide] displayed an IC50 of less than 3 nM.

Consider `CC(C)CN1CCN(CCOc2ccc(C(=O)Nc3ccc(OC(F)(F)F)cc3)cc2-c2cncnc2)CC1` [Example 39, 4-(2-(4-Isobutylpiperazin-1-yl)ethoxy)-3-(pyrimidin-5-yl)-N-(4-(trifluoromethoxy)phenyl)benzamide], for which the IC50 is less than 3 nM.

`O=C(Nc1ccc(OC(F)(F)F)cc1)c1ccc(O)c(-c2cncnc2)c1` [Example 41, 4-Hydroxy-3-(pyrimidin-5-yl)-N-(4-(trifluoromethoxy)phenyl)benzamide] came in with a concentration for half-maximal inhibition (IC50) of 13 nM. In other words, the double-digit nanomolar range.

The compound `O=C(Nc1ccc(OC(F)(F)F)cc1)c1cnc(OCCNCCO)c(-c2cncnc2)c1` [Example 50, 6-(2-((2-Hydroxyethyl)amino)ethoxy)-5-(pyrimidin-5-yl)-N-(4-(trifluoromethoxy)phenyl)nicotinamide] registered an IC50 of 4.2 nM.

For `O=C(Nc1ccc(OC(F)(F)F)cc1)c1cccc(-c2cncnc2)c1F` [Example 60, 2-Fluoro-3-(pyrimidin-5-yl)-N-(4-(trifluoromethoxy)phenyl)benzamide], the IC50 amounted to 36 nM.

`COc1ncccc1-c1cncc(C(=O)Nc2ccc(OC(F)(F)F)cc2)c1` [Example 62, 2′-Methoxy-N-(4-(trifluoromethoxy)phenyl)-[3,3′-bipyridine]-5-carboxamide] gave a concentration for half-maximal inhibition (IC50) of 69 nM.

As for `O=C(Nc1ccc(OC(F)(F)F)cc1)c1cncc(-c2cccnc2O)c1` [Example 63, 2′-Hydroxy-N-(4-(trifluoromethoxy)phenyl)-[3,3′-bipyridine]-5-carboxamide], the IC50 came out at 77 nM. The IC50 values of the last two compounds are within 1.5-fold of each other.

`COc1ncc(-c2cc(C(=O)Nc3ccc(OC(F)(F)F)cc3)ccn2)cn1` [Example 69, 2-(2-Methoxypyrimidin-5-yl)-N-(4-(trifluoromethoxy)phenyl)isonicotinamide] had a 50% inhibitory concentration (IC50) of less than 3 nM.

As for `O=C(Nc1ccc(OC(F)(F)F)cc1)c1ccnc(-c2cncnc2)c1` [Example 70, 2-(Pyrimidin-5-yl)-N-(4-(trifluoromethoxy)phenyl)isonicotinamide], the half-maximal inhibitory concentration (IC50) was determined as 13 nM.

Turning to `O=C(Nc1ccc(OC(F)(F)F)cc1)c1cncc(-c2cncnc2)n1` [Example 71, 6-(pyrimidin-5-yl)-N-(4-(trifluoromethoxy)phenyl)pyrazine-2-carboxamide], the IC50 came to 660 nM.

Regarding `O=C(Nc1ccc(OC(F)(F)F)cc1)c1cc(-c2cncnc2)ccn1` [Example 72, 4-(pyrimidin-5-yl)-N-(4-(trifluoromethoxy)phenyl)picolinamide], the concentration for half-maximal inhibition (IC50) was 650 nM.
